Reference: patent publication US11370822B2, “Self-assembling peptide for activating human mast cells” (The Governors of the University of Alberta, priority 2017, dated 2022)
Like-named read-outs stand apart in the source and are kept apart here.

Key:
[1] = tested on: LAD2 cells; test: Cell viability analysis using XTT assay; details: for cytotoxicity to LAD2 cells (XTT): PAMP-12 10 μM, 0.5% w/v hydrogel matrices (pure (RADA)4 or 20% w/w (RADA)4-GG-(PAMP-12)), 4 h or 24 h; for effect on LAD2 proliferation (XTT): same treatments, after 24 h incubation
Protocol: (§2) LAD2 cells were suspended in culture medium (50 μl, 1.0×10^6 cells/ml) and placed on top of 50 μl of hydrogel matrix or culture medium solution. After an 4 h or 24 h incubation, cell viability was measured using a 2,3-bis-(2-methoxy-4-nitro-5-sulfophenyl)-2H-tetrazolium-5-carboxanilide (XTT) proliferation kit (Roche Molecular Biochemicals, Indianapolis, Ind., USA), according to the manufacturer's supplied instructions. To facilitate a uniform distribution of color throughout the hydrogel matrix, 50 μl of DMSO was added into each well prior to analysis.

[2] = AFM morphology of self-assembling peptide nanofiber matrices; type: physicochemical
Protocol: (§1) (RADA)4 (SEQ ID NO: 1) and (RADA)4-GG-(PAMP-12) (SEQ ID NO:2) stock solutions (1.0% w/v) were prepared by dissolving peptide powder in syringe filtered (0.2 μm) Milli-Q water. Peptide stock solutions were sonicated for 30 min to avoid bulk aggregates and reduce viscosity. (RADA)4 peptide solutions with different proportion of (RADA)4-GG-(PAMP-12) (SEQ ID NO: 2) (0, 2.5, 5, 10, 20, 40, 80, 100% w/w) were mixed with 1x PBS (pH 7.4) at a ratio of 1:1 (v/v) to get hydrogel matrices with peptide concentration of 0.5% w/v. Fifty μl of the mixture was placed at the bottom of a 96-well plate or well insert, overnight at 4° C. and washed with HEPES buffer (10 mM, with 0.4% BSA, pH 7.4) or PBS for 3 times.
The morphology of the hydrogel matrices were measured using Dimension 3100 Nanoman Atomic Force Microscopy (AFM, Veeco Metrology, LLC) with tapping mode, tip radius of 8 nm. Matrix solutions used in AFM studies were prepared by 500 times diluted with Mili-Q water. A drop (5 ul) of each solution was placed on freshly cleaved mica substrate then rise with water. The surfaces were air dried overnight at room temperature before being imaged.

[3] = tested on: LAD2 cells; test: β-hexosaminidase (β-hex) release assay, peptide solutions; type: cell-based, human; details: 30 min; for LAD2 degranulation (β-hex release): peptide solutions, various concentrations, compared with PBS; for β-hex release (plateau): solution free peptide, 10 μM
Protocol: LAD2 (Laboratory of Allergic Diseases 2) human mast cells were incubated in StemPro-34 SFM medium (Life Technologies, Rockville, Md.) supplemented with 2 mM L-glutamine, 100 I/ml penicillin, 50 μg/ml streptomycin, 100 ng/ml recombinant human SCF (Peprotech, Rocky Hill, N.J.). Cells were maintained at 0.1×10^6 cells/ml at 37° C. and 5% CO2. Cell suspensions were isolated via centrifugation (200 g, 5 min, at room temperature) and media was replaced every 3-7 days. For each well, 0.25×10^5 LAD2 cells were washed and resuspended in 90 μl HEPES buffer (10 mM, with 0.4% BSA, pH 7.4), and activated by adding 10 μl peptide solutions (PAMP-12 […], (RADA)4 (SEQ ID NO: 1) and (RADA)4-GG-(PAMP-12) (SEQ ID NO: 2)) in PBS (1×, pH 7.4) for 30 min at 37° C., the final concentrations of peptide are 0, 0.01, 0.1, 1, 10, 20, 50, 100 μM respectively. β-hex release was quantified through analysis of the hydrolysis of p-nitrophenyl N-acetyl-b-D-glucosamide (Sigma Aldrich, Oakville, ON, Canada) in 0.1 M sodium citrate buffer (pH 4.5) for both the supernatant and in total cell lysates solubilized with 0.01% Triton X-100 for 90 min at 37° C. The reaction was stopped by adding glycine buffer (pH 10.7). Read absorbance at 405 nm with reference filter at 620 nm. The percent-age of β-hex released into the supernatant was calculated by the β-hex contents of supernatant and cell lysate.

[4] = tested on: LAD2 cells; test: β-hex release assay, LAD2 cells on top of hydrogel matrices; type: cell-based, human; details: for degranulation activity (β-hex release): 30 min
Protocol: as §1
LAD2 (Laboratory of Allergic Diseases 2) human mast cells were incubated in StemPro-34 SFM medium (Life Technologies, Rockville, Md.) supplemented with 2 mM L-glutamine, 100 I/ml penicillin, 50 μg/ml streptomycin, 100 ng/ml recombinant human SCF (Peprotech, Rocky Hill, N.J.). Cells were maintained at 0.1×10^6 cells/ml at 37° C. and 5% CO2. Cell suspensions were isolated via centrifugation (200 g, 5 min, at room temperature) and media was replaced every 3-7 days.
To evaluate the effect of the matrices on degranulation, 0.25×10^5 LAD2 cells in 50 μl HEPES buffer (10 mM, with 0.4% BSA, pH 7.4) were carefully placed on the top of 50 μl hydrogel matrices, and the β-hex release was measured as described. After 30 min incubation, cell free supernatant and total cells with the matrices were collected by centrifugation (300 g, 5 min) for analysis.

[5] = tested on: LAD2 cells; test: β-hex release assay, co-culture with well insert (0.2 μm pore size filter); type: cell-based, human; details: 30 min
Protocol: To evaluate the immobilization effect of (RADA)4-GG-(PAMP-12) (SEQ ID NO: 2) in the matrices. As shown in FIG. 6 (A), 0.25×10^5 LAD2 cells in 100 μl HEPES buffer (10 mM, with 0.4% BSA, pH 7.4) were co-incubated with well inserts that contain 50 μl of self-assembling matrix (20% and 100% w/w of (RADA)4-GG-(PAMP-12) (SEQ ID NO: 2)) or PAMP-12 (SEQ ID NO: 3) solution in HEPES buffer (10 mM, with 0.4% BSA, pH 7.4) with the corresponding concentration (0.29 and 1.46 mM respectively). After 30 min incubation, inserts were removed, and the β-hex release was measured as described.

[6] = tested on: LAD2 cells; test: Laser-scanning confocal microscopy of LAD2 cells on hydrogel matrices (adhesion, F-actin); type: cell-based, human; details: 0.5% w/v matrix (pure (RADA)4 or 20% w/w (RADA)4-GG-(PAMP-12))
Protocol: For each sample, 0.25×10^5 LAD2 cells in 50 μl culture medium were allowed to incubate with 50 μl hydrogel matrix for 30 min at 37° C. After incubation, the medium was disposed, and hydrogel matrix was carefully washed by warm PBS for 3 times to remove non-adherent cells. Hydrogel matrices were then fixed in 3.7% paraformaldehyde in PBS for 20 min at room temperature and 3 times washed in PBS. Cells were permeabilized with 0.1% Triton X-100 in PBS for 5 min, washed in PBS for 3 times, then followed by 3% BSA blocking for 30 min and 3 times washing in PBS. To stain F-actin, samples were incubated with 0.5 μM Phalloidin-FITC (Sigma-Aldrich, USA) for 30 minutes and followed by 3 times washing in PBS. Cell nuclei were stained with 1 ug/mL DAPI (Sigma-Aldrich, USA) in PBS for 30 min. After 3 times washing in PBS, Z-slice images of the matrix with adhered LAD2 cells were collected using Laser Scanning Confocal Microscopy (LSM710, Carl Zeizz AG, Oberkochen, Germany) with an inverted 10× objective.

[7] = tested on: TPSAB1 (tryptase) mRNA; test: In vitro activation of mast cells in human skin, ddPCR for TPSAB1 expression; details: human skin without epidermis (NSE), 4 h; 10 μM PAMP-12, pure (RADA)4 matrix or matrix with 20% w/w (RADA)4-GG-(PAMP-12); NS average taken as 100
Source text: Human skin was harvested from abdominoplasty surgical discard specimens obtained following written informed consent as approved by the University of Alberta research ethics board. All tissue was from healthy non-smokers in their 30s. Human skin was separated from the underlying adipose tissue using a 15 blade scalpel. The epidermis was then removed using a […] dermatome (Integra LifeSciences Corporation, Cincinnati, Ohio) set to 0.25 mm thickness. The deepithelialized dermis was then divided into multiple pieces 1 cm^2 using sharp surgical scissors. Control or active hydrogel matrix (100 μl) was then layered onto the exposed surface of the dermis. […] For some groups, PBS and PAMP-12 PBS solution were used as negative and positive control. Following this, tissue pieces were removed and snap frozen in liquid nitrogen and stored at -80° C. until further processing. […] To obtain the absolute quantity of TPSAB1 transcripts, ddPCR (QX100, Bio-Rad, Hercules, Calif.) was employed using 5 ng of each cDNA sample and ddPCR supermix for the specific probes (Bio-Rad) according to manufacturer's protocols. […] QuantaSoft Software (Bio-Rad) was employed to analyze ddPCR results, and the absolute concentration of TPSAB1 transcripts in each sample determined by ddPCR was divided by the ACTB transcripts and presented as percentage based on normal skin samples (NS average taken as 100).

[8] = tested on: LAD2 cells
Protocol: as §2

[9] = pure (RADA)4-GG-(PAMP-12), 0.5% w/v

| nanofiber length (most of the nanofibers) ([2]; 20% and 40% w/w (RADA)4-GG-(PAMP-12) in (RADA)4, 0.5% w/v) [nm] | nanofiber length (most of the nanofibers) [2, 9] | nanoparticle size [2, 9] | nanofiber height (AFM cross section) ([2]; pure peptide, 0.5% w/v matrix) | SMILES | cytotoxicity to LAD2 cells (XTT) [1] | effect on LAD2 proliferation (XTT) [1] | nanostructure morphology ([2]; pure peptide, 0.5% w/v) | LAD2 degranulation (β-hex release) [3] | β-hex release (plateau) [3] [%] | degranulation activity (β-hex release) ([4]; 0.5% w/v hydrogel matrix with 20% w/w (RADA)4-GG-(PAMP-12)) [%] | degranulation activity (β-hex release) ([4]; 0.5% w/v hydrogel matrix with 40% w/w (RADA)4-GG-(PAMP-12)) [%] | degranulation activity versus proportion in matrix ([4]; (RADA)4-GG-(PAMP-12) from 2.5 to 20% w/w in matrix) | degranulation of LAD2 (β-hex release) ([5]; 0.5% w/v matrix with 20% w/w (RADA)4-GG-(PAMP-12) in insert) [%] | degranulation of LAD2 (β-hex release) ([5]; matrix of 100% w/w (RADA)4-GG-(PAMP-12) in insert) [%] | F-actin organization / cell morphology of LAD2 cells ([6]; 2D imaging) | LAD2 cells associated with matrix post-wash ([6]; 30 min incubation) | TPSAB1 expression level, normalized to ACTB [7] [percentage] | degranulation of LAD2 (β-hex release) ([5]; 0.29 mM PAMP-12 solution in insert) [%] | degranulation of LAD2 (β-hex release) ([5]; 1.46 mM PAMP-12 solution in insert) [%] | effect on LAD2 proliferation (XTT) [8] |
| --- | --- | --- | --- | --- | --- | --- | --- | --- | --- | --- | --- | --- | --- | --- | --- | --- | --- | --- | --- | --- |
| – | – | – | – | CC(=O)N[C@@H](CCCNC(=N)N)C(=O)N[C@@H](C)C(=O)N[C@@H](CC(=O)O)C(=O)N[C@@H](C)C(=O)N[C@@H](CCCNC(=N)N)C(=O)N[C@@H](C)C(=O)N[C@@H](CC(=O)O)C(=O)N[C@@H](C)C(=O)N[C@@H](CCCNC(=N)N)C(=O)N[C@@H](C)C(=O)N[C@@H](CC(=O)O)C(=O)N[C@@H](C)C(=O)N[C@@H](CCCNC(=N)N)C(=O)N[C@@H](C)C(=O)N[C@@H](CC(=O)O)C(=O)N[C@@H](C)C(N)=O [(RADA)4, RADARADARADARADA, reference compound] | not cytotoxic | no statistically significant effect | – | – | – | – | – | – | – | – | – | – | – | – | – | – |
| > 500 | less than 500 nm | less than 200 nm | 2.5-3.5 nm | CC(=O)N[C@@H](CCCNC(=N)N)C(=O)N[C@@H](C)C(=O)N[C@@H](CC(=O)O)C(=O)N[C@@H](C)C(=O)N[C@@H](CCCNC(=N)N)C(=O)N[C@@H](C)C(=O)N[C@@H](CC(=O)O)C(=O)N[C@@H](C)C(=O)N[C@@H](CCCNC(=N)N)C(=O)N[C@@H](C)C(=O)N[C@@H](CC(=O)O)C(=O)N[C@@H](C)C(=O)N[C@@H](CCCNC(=N)N)C(=O)N[C@@H](C)C(=O)N[C@@H](CC(=O)O)C(=O)N[C@@H](C)C(=O)NCC(=O)NCC(=O)N[C@@H](Cc1ccccc1)C(=O)N[C@@H](CCCNC(=N)N)C(=O)N[C@@H](CCCCN)C(=O)N[C@@H](CCCCN)C(=O)N[C@@H](Cc1c[nH]c2ccccc12)C(=O)N[C@@H](CC(N)=O)C(=O)N[C@@H](CCCCN)C(=O)N[C@@H](Cc1c[nH]c2ccccc12)C(=O)N[C@@H](C)C(=O)N[C@@H](CC(C)C)C(=O)N[C@@H](CO)C(=O)N[C@@H](CCCNC(=N)N)C(N)=O [(RADA)4-GG-(PAMP-12)] | not cytotoxic | no statistically significant effect | thick and short nanofibers and even small nanoparticles | induced significant degranulation | ~75 | 64.2±3.4 | 70.2±7.1 | increased proportionally | 11.1±1.1 | 59.6±3.1 | lamellipodia and filopodia were observed | considerable amount of cells retained after washing | 191.1±12.0 | – | – | – |
| – | – | – | – | CC(=O)N[C@@H](Cc1ccccc1)C(=O)N[C@@H](CCCNC(=N)N)C(=O)N[C@@H](CCCCN)C(=O)N[C@@H](CCCCN)C(=O)N[C@@H](Cc1c[nH]c2ccccc12)C(=O)N[C@@H](CC(N)=O)C(=O)N[C@@H](CCCCN)C(=O)N[C@@H](Cc1c[nH]c2ccccc12)C(=O)N[C@@H](C)C(=O)N[C@@H](CC(C)C)C(=O)N[C@@H](CO)C(=O)N[C@@H](CCCNC(=N)N)C(N)=O [PAMP-12, Ac-FRKKWNKWALSR-CONH2, reference compound] | – | – | – | induced significant degranulation | ~75 | – | – | – | – | – | – | – | 224.2±9.920 | 65.4±2.6 | 69.5±1.2 | no statistically significant effect |
